From PubChem BioAssay (NCI) come the findings set out here.

Among the test systems are A498 renal; A549 NSCLC; CCRF-CEM leukemia; COLO 205 colon; EKVX NSCLC; HCC-2998 colon; HCT-15 colon; HL-60(TB) leukemia; HT29 colon; MCF7 breast; MDA-N; MOLT-4 leukemia; NCI-H23 lung; OVCAR-8 ovarian; RPMI-8226 leukemia; SK-MEL-5 melanoma; SNB-19 CNS; SNB-75 CNS; SR leukemia; MDA-MB-435.
Common to all, as to test: NCI anticancer screen, dose series, 48 h

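1) Cells in 96-well plates. 2) Compound, 48 h, 5 concentrations. 3) Linear interpolation between surrounding doses. 4) Unreached endpoint = highest concentration. Definition used: TGI = concentration required for complete inhibition of growth.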

In the case of `C[N+]1(C)CCCC(C#N)(c2ccccc2)CC1` (stereo not drawn), the TGI with A498 renal, in the test on A549 NSCLC, with CCRF-CEM leukemia, in the test with COLO 205 colon, with EKVX NSCLC and in the test on HCC-2998 colon was over 100 µM throughout. Also, the TGI in the test with HCT-15 colon, in the test on HL-60(TB) leukemia, with HT29 colon, in the test with MCF7 breast, in the test on MDA-N and with MOLT-4 leukemia was over 100 µM each time. The TGI with NCI-H23 lung, in the test with OVCAR-8 ovarian, with RPMI-8226 leukemia, with SK-MEL-5 melanoma, with SNB-19 CNS and in the test on SNB-75 CNS was over 100 µM each time. Besides, the TGI in the test on SR leukemia is over 100 µM.
On to `CCOC(=O)C(C)c1nc2cc(F)c(F)cc2[nH]c1=O` (stereo not drawn), for which the TGI in the test on A549 NSCLC, with CCRF-CEM leukemia, in the test on COLO 205 colon, in the test with EKVX NSCLC, with HCC-2998 colon and with HCT-15 colon was over 100 µM in each case. The TGI in the test on HL-60(TB) leukemia, in the test on HT29 colon, in the test with MCF7 breast, in the test on MDA-MB-435, with MDA-N and in the test on MOLT-4 leukemia was over 100 µM throughout. In addition, the TGI in the test with NCI-H23 lung, with OVCAR-8 ovarian, in the test on RPMI-8226 leukemia, in the test on SK-MEL-5 melanoma, with SNB-19 CNS and in the test on SNB-75 CNS was over 100 µM each time.
For `CSc1c(C(C)=O)c(O)n(-c2ccc(C)cc2)c(=O)c1C#N`, the TGI in the test on A498 renal, in the test with A549 NSCLC, in the test with CCRF-CEM leukemia, in the test with COLO 205 colon, in the test on EKVX NSCLC and in the test on HCC-2998 colon was over 100 µM each time. Also, the TGI with HCT-15 colon, in the test with HL-60(TB) leukemia, with HT29 colon, with MCF7 breast, in the test on MDA-MB-435 and in the test on MOLT-4 leukemia was over 100 µM each time. Besides, the TGI in the test with NCI-H23 lung, in the test with OVCAR-8 ovarian, in the test on RPMI-8226 leukemia, in the test with SK-MEL-5 melanoma, with SNB-19 CNS and in the test on SNB-75 CNS was over 100 µM throughout. This compound registered a TGI with SR leukemia of over 100 µM.
`O=C(/C=C/c1ccc(OCc2ccccc2)cc1)NCc1ccc(C(=O)NCCc2ccccc2)cc1`: the TGI in the test on A498 renal, in the test on A549 NSCLC, in the test with CCRF-CEM leukemia, in the test on COLO 205 colon, in the test with EKVX NSCLC and in the test on HCC-2998 colon was over 100 µM each time. The TGI in the test with HCT-15 colon, with HT29 colon, in the test with MCF7 breast, in the test on MDA-MB-435, in the test with MDA-N and in the test with NCI-H23 lung was over 100 µM in each case. The TGI with OVCAR-8 ovarian, in the test on SK-MEL-5 melanoma, with SNB-19 CNS and in the test with SNB-75 CNS was over 100 µM in each case.
In the case of `O=C(C[N+]12CN3CN(CN(C3)C1)C2)c1ccc(-c2ccccc2)cc1`, the TGI in the test on A498 renal was 44.4 µM; in the test on A549 NSCLC, over 100 µM; with CCRF-CEM leukemia, 5.37 µM; in the test on EKVX NSCLC, 44.9 µM; in the test with HCC-2998 colon, 28.9 µM; with HCT-15 colon it was 86.3 µM. For the same compound, the TGI with HT29 colon is 48.4 µM; in the test with MDA-MB-435 it was over 100 µM; in the test on MDA-N it was 42.8 µM; in the test on MOLT-4 leukemia it was 42.9 µM; in the test on NCI-H23 lung, 53.5 µM; with OVCAR-8 ovarian, over 100 µM. Moreover, the TGI in the test with SK-MEL-5 melanoma was determined as 30.4 µM; with SNB-19 CNS, 57.5 µM; in the test on SNB-75 CNS, 38.6 µM; with SR leukemia, 12.2 µM.
Turning to `C=C1OC2OC(C)C(NC(=O)OCC(Cl)(Cl)Cl)C(OC(C)=O)C2O1` (stereo not drawn), the TGI in the test with A498 renal, in the test on A549 NSCLC, in the test with CCRF-CEM leukemia, with COLO 205 colon, with EKVX NSCLC and in the test on HCC-2998 colon was over 100 µM in each case. Also, the TGI with HCT-15 colon, in the test on HL-60(TB) leukemia, in the test on HT29 colon, with MCF7 breast, with MDA-MB-435 and in the test on MOLT-4 leukemia was over 100 µM each time. For the same compound, the TGI with NCI-H23 lung, in the test on OVCAR-8 ovarian, in the test with RPMI-8226 leukemia, in the test on SK-MEL-5 melanoma, with SNB-19 CNS and in the test with SR leukemia was over 100 µM in each case.
For the compound `CC(=O)Oc1ccc2cc(Oc3cc(Cl)c(Cl)cc3Cl)c(=O)oc2c1`, the TGI in the test with A498 renal was found to be 46.7 µM; with A549 NSCLC it was 40.2 µM; with CCRF-CEM leukemia, 37.9 µM; in the test on EKVX NSCLC, 71.9 µM; with HCC-2998 colon, 30.8 µM; in the test with HCT-15 colon, 26.3 µM. Further, the TGI stood at 68.8 µM in the test on HL-60(TB) leukemia; 30.5 µM with HT29 colon; 67.7 µM with MCF7 breast; 30.6 µM in the test on MDA-N; 30.4 µM in the test on MOLT-4 leukemia; 88.5 µM in the test with NCI-H23 lung. Besides, the TGI in the test on OVCAR-8 ovarian is 34.7 µM; in the test with SK-MEL-5 melanoma, 24.1 µM; with SNB-19 CNS it was 81.2 µM; in the test on SNB-75 CNS, 44.6 µM; with SR leukemia, 67.6 µM.
